Results as given in patent publication US9062026B2, “Fused pyrimidines and substituted quinazolines as inhibitors of p97” (Cleave Biosciences, Inc., priority 2012, dated 2015).
Read-outs that look alike come from different tables or passages of the source.

Columns and labels:
p97 = p97 (Homo sapiens (Human), UniProt P55072); test: P97 ATPase biochem assay (ADP Glo); type: biochemical
Description: The ATPase assay is performed according the following protocol: Purified enzyme (20 nM p97), substrate (20 μM ATP) and a dose titration of compounds are mixed in buffer (50 mM TRIS pH 7.5, 20 mM MgCl2, 0.02% TX-100, 1 mM DTT, 0.2% (v/v) glycerol) and incubated at 37° C. for 15 minutes. The reaction is terminated and the level of product generated is measured using the ADP Glo Assay Kit (Promega, Madison Wis.). Plotting product generated versus compound concentration and using a four-parameter fit model generates an IC50 value for each compounds.

A549 K48 = A549 K48 cell intensity (lysine-48 poly-ubiquitin accumulation, immunofluorescence); type: cell-based; conditions: Homo sapiens
Description: Image-analysis is used to generate quantitative data from these assays that can be fit to a four-parameter sigmoid curve to derive IC50 values. Substrates of the ubiquitin-proteasome system, such as p53, are monitored after tumor cell lines are incubated with compounds for several hours. Accumulation of these proteins indicates an inhibition of proteasome-mediated degradation. Accumulation of lysine-48 chain linkage of poly-ubiquitin is also monitored by immunofluorescence as an indicator of ubiquitin-proteasome system inhibition. Both LC3 and SQSTM1 are mediators of autophagy. The localization and amounts of these proteins are monitored by immunofluorescence and report on the activity and inhibition of autophagy in response to p97 inhibition.

[1] = 20 nM p97, 20 μM ATP, 37° C., 15 minutes, read-out: p97 biochem IC50

Chain of p97 (P55072 whole entry): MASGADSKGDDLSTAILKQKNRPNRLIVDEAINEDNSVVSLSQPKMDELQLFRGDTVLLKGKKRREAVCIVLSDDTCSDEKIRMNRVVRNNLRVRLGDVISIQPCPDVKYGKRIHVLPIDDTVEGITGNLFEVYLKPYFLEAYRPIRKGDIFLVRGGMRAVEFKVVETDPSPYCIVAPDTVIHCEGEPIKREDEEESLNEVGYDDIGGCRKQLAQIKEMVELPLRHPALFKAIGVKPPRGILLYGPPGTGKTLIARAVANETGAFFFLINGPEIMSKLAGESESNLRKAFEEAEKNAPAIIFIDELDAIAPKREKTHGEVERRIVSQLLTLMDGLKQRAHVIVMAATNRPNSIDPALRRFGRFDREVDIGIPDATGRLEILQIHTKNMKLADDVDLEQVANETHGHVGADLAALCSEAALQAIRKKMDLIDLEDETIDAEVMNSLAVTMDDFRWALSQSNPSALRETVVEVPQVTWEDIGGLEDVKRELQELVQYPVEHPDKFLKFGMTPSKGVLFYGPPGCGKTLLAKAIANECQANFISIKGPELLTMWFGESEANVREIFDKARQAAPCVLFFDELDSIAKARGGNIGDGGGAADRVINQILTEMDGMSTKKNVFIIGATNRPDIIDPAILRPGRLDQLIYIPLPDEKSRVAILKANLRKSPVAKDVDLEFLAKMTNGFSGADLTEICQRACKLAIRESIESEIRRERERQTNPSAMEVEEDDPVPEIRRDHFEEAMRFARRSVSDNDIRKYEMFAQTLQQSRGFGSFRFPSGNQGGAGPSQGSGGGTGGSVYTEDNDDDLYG

IC50 (p97; read-out: p97 IC50) [nM]	IC50 (A549 K48) [nM]	IC50 (p97; [1]) [nM]	Compound
< 100	< 10000	–	COc1cc2c(C#N)cccc2n1-c1nc2c(c(NCc3ccccc3)n1)CCCC2 [1-[4-(benzylamino)-5,6,7,8-tetrahydroquinazolin-2-yl]-2-methoxy-1H-indole-4-carbonitrile]
< 100	< 10000	–	Cc1nc2c(C#N)cccc2n1-c1nc2c(c(NCc3ccccc3)n1)CCCC2 [1-[4-(benzylamino)-5,6,7,8-tetrahydroquinazolin-2-yl]-2-methyl-1H-1,3-benzodiazole-4-carbonitrile]
< 100	< 10000	–	Cc1cc2c(C(N)=O)cccc2n1-c1nc2c(c(NCc3ccccc3)n1)CNCC2 [1-[4-(benzylamino)-5H,6H,7H,8H-pyrido[4,3-d]pyrimidin-2-yl]-2-methyl-1H-indole-4-carboxamide]
< 100	< 10000	–	COc1cc2c(C#N)cccc2n1-c1nc2c(c(NCc3ccccc3)n1)COCC2 [1-[4-(benzylamino)-5H,7H,8H-pyrano[4,3-d]pyrimidin-2-yl]-2-methoxy-1H-indole-4-carbonitrile]
< 30	< 10000	–	COc1cc2c(C(N)=O)cccc2n1-c1nc2c(c(NCc3ccccc3)n1)COCC2 [1-[4-(benzylamino)-5H,7H,8H-pyrano[4,3-d]pyrimidin-2-yl]-2-methoxy-1H-indole-4-carboxamide]
< 100	< 10000	–	Cc1cc2c(C#N)cccc2n1-c1nc2c(c(NCc3ccccc3)n1)CN(C)CC2 [1-[4-(benzylamino)-6-methyl-5H,6H,7H,8H-pyrido[4,3-d]pyrimidin-2-yl]-2-methyl-1H-indole-4-carbonitrile]
< 300	< 10000	–	COc1cccc2c(NCc3ccccc3)nc(-n3c(C(C)N)cc4ccccc43)nc12 (stereo not drawn) [2-[2-(1-aminoethyl)-1H-indol-1-yl]-N-benzyl-8-methoxyquinazolin-4-amine]
< 300	< 10000	–	NCc1cc2ccccc2n1-c1nc2c(c(NCc3ccccc3)n1)CCCC2 [2-[2-(aminomethyl)-1H-indol-1-yl]-N-benzyl-5,6,7,8-tetrahydroquinazolin-4-amine]
< 100	< 10000	–	NC(=O)NCc1cc2ccccc2n1-c1nc2c(c(NCc3ccccc3)n1)CCCC2 [({1-[4-(benzylamino)-5,6,7,8-tetrahydroquinazolin-2-yl]-1H-indol-2-yl}methyl)urea]
< 100	< 10000	–	CC(=O)NCc1cc2ccccc2n1-c1nc2c(c(NCc3ccccc3)n1)CCCC2 [N-({1-[4-(benzylamino)-5,6,7,8-tetrahydroquinazolin-2-yl]-1H-indol-2-yl}methyl)acetamide]
< 300	< 10000	–	CS(=O)(=O)NCc1cc2ccccc2n1-c1nc2c(c(NCc3ccccc3)n1)CCCC2 [N-({1-[4-(benzylamino)-5,6,7,8-tetrahydroquinazolin-2-yl]-1H-indol-2-yl}methyl)methanesulfonamide]
< 100	< 10000	–	Clc1cc2ccccc2n1-c1nc2c(c(NCc3ccccc3)n1)CCCC2 [N-benzyl-2-(2-chloro-1H-indol-1-yl)-5,6,7,8-tetrahydroquinazolin-4-amine]
< 100	< 10000	–	CCOc1cc2ccccc2n1-c1nc2c(c(NCc3ccccc3)n1)CCCC2 [N-benzyl-2-(2-ethoxy-1H-indol-1-yl)-5,6,7,8-tetrahydroquinazolin-4-amine]
< 300	< 10000	–	COCCOc1cccc2c(NCc3ccccc3)nc(-n3c(OC)nc4ccccc43)nc12 [N-benzyl-2-(2-methoxy-1H-1,3-benzodiazol-1-yl)-8-(2-methoxyethoxy)quinazolin-4-amine]
< 30	< 10000	–	COc1cc2ccccc2n1-c1nc2c(c(NCc3ccccc3)n1)CCCC2 [N-benzyl-2-(2-methoxy-1H-indol-1-yl)-5,6,7,8-tetrahydroquinazolin-4-amine]
< 300	< 10000	–	COc1cc2ccccc2n1-c1nc2c(c(NCc3ccccc3)n1)COCC2 [N-benzyl-2-(2-methoxy-1H-indol-1-yl)-5H,7H,8H-pyrano[4,3-d]pyrimidin-4-amine]
< 300	< 10000	–	COc1cccc2c(NCc3ccccc3)nc(-n3c(/C=C/S(C)(=O)=O)cc4ccccc43)nc12 [N-benzyl-2-{2-[(E)-2-methanesulfonylethenyl]-1H-indol-1-yl}-8-methoxyquinazolin-4-amine]
< 300	< 10000	–	CN(C)Cc1cc2ccccc2n1-c1nc2c(c(NCc3ccccc3)n1)CCCC2 [N-benzyl-2-{2-[(dimethylamino)methyl]-1H-indol-1-yl}-5,6,7,8-tetrahydroquinazolin-4-amine]

IC50 (p97; read-out: p97 IC50) [nM]	IC50 (A549 K48) [nM]	IC50 (p97; [1]) [nM]	Compound
< 100	< 10000	–	COCCOc1cccc2c(NCc3ccccc3)nc(-n3c(C)cc4ccccc43)nc12 [N-benzyl-8-(2-methoxyethoxy)-2-(2-methyl-1H-indol-1-yl)quinazolin-4-amine]
< 100	< 10000	–	COc1cccc2c(NCc3ccccc3)nc(-n3c(OC)cc4ccccc43)nc12 [N-benzyl-8-methoxy-2-(2-methoxy-1H-indol-1-yl)quinazolin-4-amine]
–	–	< 2000	COc1cc2ccccc2n1-c1nc2c(c(NCc3ccccc3)n1)CCCC2 [drawing 226]
–	–	< 2000	OCc1cc2ccccc2n1-c1nc2c(c(NCc3ccccc3)n1)CCCC2 [drawing 227]
–	–	< 2000	CN(C)Cc1cc2ccccc2n1-c1nc2c(c(NCc3ccccc3)n1)CCCC2 [drawing 229]
–	–	< 2000	CC(=O)NCc1cc2ccccc2n1-c1nc2c(c(NCc3ccccc3)n1)CCCC2 [drawing 230]
–	–	< 2000	NC(=O)NCc1cc2ccccc2n1-c1nc2c(c(NCc3ccccc3)n1)CCCC2 [drawing 231]
–	–	< 2000	COC(=O)NCc1cc2ccccc2n1-c1nc2c(c(NCc3ccccc3)n1)CCCC2 [drawing 232]
–	–	< 2000	CS(=O)(=O)NCc1cc2ccccc2n1-c1nc2c(c(NCc3ccccc3)n1)CCCC2 [drawing 233]
–	–	< 2000	COc1cccc2c(NCc3ccccc3)nc(-n3c(/C=C/C#N)cc4ccccc43)nc12 [drawing 242]
–	–	< 2000	COc1cccc2c(NCc3ccccc3)nc(-n3c(/C=C(/C#N)C(N)=O)cc4ccccc43)nc12 [drawing 243]
–	–	< 2000	COc1cccc2c(NCc3ccccc3)nc(-n3c(/C=C/S(C)(=O)=O)cc4ccccc43)nc12 [drawing 244]
< 300	< 10000	–	COC(=O)NCc1cc2ccccc2n1-c1nc2c(c(NCc3ccccc3)n1)CCCC2 [methyl N-({1-[4-(benzylamino)-5,6,7,8-tetrahydroquinazolin-2-yl]-1H-indol-2-yl}methyl)carbamate]
< 300	–	–	COCCOc1cccc2c(NCc3ccccc3)nc(-n3c(CNC(=O)OC)cc4ccccc43)nc12 [methyl N-({1-[4-(benzylamino)-8-(2-methoxyethoxy)quinazolin-2-yl]-1H-indol-2-yl}methyl)carbamate]
< 300	–	–	OCc1nc2ccccc2n1-c1nc2c(c(NCc3ccccc3)n1)CCCC2 [{1-[4-(benzylamino)-5,6,7,8-tetrahydroquinazolin-2-yl]-1H-1,3-benzodiazol-2-yl}methanol]
< 100	< 10000	–	OCc1cc2ccccc2n1-c1nc2c(c(NCc3ccccc3)n1)CCCC2 [{1-[4-(benzylamino)-5,6,7,8-tetrahydroquinazolin-2-yl]-1H-indol-2-yl}methanol]
< 300	–	–	COCCOc1cccc2c(NCc3ccccc3)nc(-n3c(CO)nc4ccccc43)nc12 [{1-[4-(benzylamino)-8-(2-methoxyethoxy)quinazolin-2-yl]-1H-1,3-benzodiazol-2-yl}methanol]
< 100	< 10000	–	COCCOc1cccc2c(NCc3ccccc3)nc(-n3c(CO)cc4ccccc43)nc12 [{1-[4-(benzylamino)-8-(2-methoxyethoxy)quinazolin-2-yl]-1H-indol-2-yl}methanol]

Compound	IC50 (p97; read-out: p97 IC50) [nM]	IC50 (A549 K48) [nM]	IC50 (p97; [1]) [nM]
Cc1cc2c(C(N)=O)cccc2n1-c1nc2c(c(NCc3ccccc3)n1)COCC2 [1-[4-(benzylamino)-5H,7H,8H-pyrano[4,3-d]pyrimidin-2-yl]-2-methyl-1H-indole-4-carboxamide]	–	< 10000	–
